Assay: xn = mol fraction of the nth substance listed
Details: Liquid; for viscosity: Concentric cylinders viscometry

CCCC[n+]1ccn(C)c1.O=S(=O)([N-]S(=O)(=O)C(F)(F)F)C(F)(F)F + CCCCn1cc[n+](C)c1.[Cl-]
mass density [kg/m3]
Details	x2 = 0	x2 = 0.25	x2 = 0.5	x2 = 0.75
351.9 K, 70000 kPa, Bellows volumetry	–	–	1304.5	1207.5
351.9 K, 80000 kPa, Bellows volumetry	–	1384.5	1309.5	1211.8
351.9 K, 90000 kPa, Bellows volumetry	–	1389.8	1314.2	1215.7
351.9 K, 100000 kPa, Bellows volumetry	–	1394.9	1318.9	1219.6
351.9 K, 110000 kPa, Bellows volumetry	–	1400	1323.3	1223.4
351.9 K, 120000 kPa, Bellows volumetry	–	1404.9	1327.8	1227.2
351.9 K, 130000 kPa, Bellows volumetry	–	1409.6	1332	1230.8
351.9 K, 140000 kPa, Bellows volumetry	–	1414.2	1336.1	1234.5
351.9 K, 150000 kPa, Bellows volumetry	–	1418.7	1340.3	1237.9
351.9 K, 160000 kPa, Bellows volumetry	–	1423.2	1344.2	1241.4
351.9 K, 170000 kPa, Bellows volumetry	–	1427.5	1348	1244.7
351.9 K, 180000 kPa, Bellows volumetry	–	1431.7	1351.8	1247.9
351.9 K, 190000 kPa, Bellows volumetry	–	1435.8	1355.6	1251.2
351.9 K, 200000 kPa, Bellows volumetry	–	1439.9	1359.2	1254.3
353.15 K, 100 kPa, Vibrating tube method	1384.8	1331.1	1263	1173.6
363.15 K, 100 kPa, Vibrating tube method	1375.6	1322.6	1255.4	1167.1
372.1 K, 10000 kPa, Bellows volumetry	–	1322.9	1255	1165.9
372.1 K, 20000 kPa, Bellows volumetry	–	1330.9	1261.8	1171.6
372.1 K, 30000 kPa, Bellows volumetry	–	1338.3	1268.4	1176.9
372.1 K, 40000 kPa, Bellows volumetry	–	1345.3	1274.6	1181.9
372.1 K, 50000 kPa, Bellows volumetry	–	1352	1280.4	1186.7
372.1 K, 60000 kPa, Bellows volumetry	–	1358.3	1286	1191.4
372.1 K, 70000 kPa, Bellows volumetry	–	1364.4	1291.3	1195.9
372.1 K, 80000 kPa, Bellows volumetry	–	1370.4	1296.5	1200.3
372.1 K, 90000 kPa, Bellows volumetry	–	1375.8	1301.4	1204.4
372.1 K, 100000 kPa, Bellows volumetry	–	1381.2	1306.1	1208.5
372.1 K, 110000 kPa, Bellows volumetry	–	1386.4	1310.9	1212.5
372.1 K, 120000 kPa, Bellows volumetry	–	1391.5	1315.4	1216.3
372.1 K, 130000 kPa, Bellows volumetry	–	1396.2	1319.8	1220
372.1 K, 140000 kPa, Bellows volumetry	–	1401.1	1324.2	1223.7
372.1 K, 150000 kPa, Bellows volumetry	–	1405.7	1328.4	1227.3
372.1 K, 160000 kPa, Bellows volumetry	–	1410.3	1332.5	1230.8
372.1 K, 170000 kPa, Bellows volumetry	–	1414.7	1336.4	1234.1
372.1 K, 180000 kPa, Bellows volumetry	–	1419	1340.3	1237.6
372.1 K, 190000 kPa, Bellows volumetry	–	1423.3	1344.1	1240.8
372.1 K, 200000 kPa, Bellows volumetry	–	1427.6	1347.9	1244.1
373.15 K, 100 kPa, Vibrating tube method	1366.7	1314	1247.5	1160.2
392.3 K, 10000 kPa, Bellows volumetry	–	1306.7	1240.1	1152.9
392.3 K, 20000 kPa, Bellows volumetry	–	1315.1	1247.4	1158.8
392.3 K, 30000 kPa, Bellows volumetry	–	1323.1	1254.3	1164.4
392.3 K, 40000 kPa, Bellows volumetry	–	1330.5	1260.9	1169.7
392.3 K, 50000 kPa, Bellows volumetry	–	1337.5	1266.9	1174.8
392.3 K, 60000 kPa, Bellows volumetry	–	1344.2	1272.8	1179.6
392.3 K, 70000 kPa, Bellows volumetry	–	1350.5	1278.4	1184.3
392.3 K, 80000 kPa, Bellows volumetry	–	1356.6	1283.8	1188.8
392.3 K, 90000 kPa, Bellows volumetry	–	1362.4	1288.8	1193.1
392.3 K, 100000 kPa, Bellows volumetry	–	1368	1293.8	1197.3
392.3 K, 110000 kPa, Bellows volumetry	–	1373.3	1298.7	1201.5
392.3 K, 120000 kPa, Bellows volumetry	–	1378.6	1303.4	1205.5
392.3 K, 130000 kPa, Bellows volumetry	–	1383.7	1308	1209.3
392.3 K, 140000 kPa, Bellows volumetry	–	1388.7	1312.4	1213.1
392.3 K, 150000 kPa, Bellows volumetry	–	1393.5	1316.8	1216.8
392.3 K, 160000 kPa, Bellows volumetry	–	1398.2	1320.9	1220.4
392.3 K, 170000 kPa, Bellows volumetry	–	1402.8	1325.1	1224
392.3 K, 180000 kPa, Bellows volumetry	–	1407.1	1329.2	1227.4
392.3 K, 190000 kPa, Bellows volumetry	–	1411.5	1333	1230.8
392.3 K, 200000 kPa, Bellows volumetry	–	1415.9	1336.9	1234.2

viscosity [mPa·s], 100 kPa
Details	x2 = 0	x2 = 0.25	x2 = 0.5	x2 = 0.75
353.15 K	9.562	15.34	27.82	58.87
363.15 K	7.788	12.03	20.61	40.11
373.15 K	6.469	9.638	15.7	28.43

— the NIST ThermoML archive (doi:10.1016/j.jct.2016.12.037)
